In patent EP0249301A1, “Pyrido[2,3-b]indoles” (BEECHAM GROUP PLC, priority 1986, dated 1987):

Test system: Rats
Assay: Geller-Seifter procedure (conflict test for anxiolytic properties)
Assay type: in vivo
Details: Rattus norvegicus, 0.5 h; dose 50 mg/kg po, 30 min before testing; percentage increase in square root of total lever presses in the FR5 'conflict' session; read-out: increase in responding in the 'conflict' session
Experimental: Potential anxiolytic properties have been evaluated using the Geller-Seifter procedure based on that originally described by Geller and Seifter, (1960) Psychopharmacologia, 1, 482-492.
Rats are trained on a variable interval 30 sec schedule (VI30) to press a lever in order to obtain food reward. The 5 min sessions of the V130 schedule alternate with 2-5 min of a schedule (FR5) in which every 5th lever press is followed by presentation of a food pellet paired with a 0.5 sec mild footshock. The total study lasts approximately 30 mins. Rats typically respond with high rates of lever pressing under the VI30 schedule and low response rats under the Fx5 'conflict' session. Anxiolytic drugs increase the suppressed response rates of rats in 'conflict' session.
Drugs are administered intraperitoneally or orally to groups of 3-8 rats 30 min before testing.
The results are expressed as the percentage increase in square root of the total number of lever presses in the FR5 'conflict' session. Square root transformation is necessary to normalise the data for statistical analysis using parametric methods.

COC(=O)c1c(C)nc2[nH]c3ccccc3c2c1N [Example 1, 4-Amino-2-methyl-9H-pyrido[2,3-b]indole-3-carboxylic acid, methyl ester] gave a change in vivo at 50 mg/kg of 143%.

Work on CNc1c(C(=O)OC)c(C)nc2c1c1ccccc1n2C [Example 8, 2,9-Dimethyl-4-methylamino-9H-pyrido[2,3-b]indole-3-carboxylic acid, methyl ester] yielded a change in vivo at 50 mg/kg of 112%.

C=CCOC(=O)c1c(C)nc2c(c1N)c1ccccc1n2C [Example 11, 4-Amino-2,9-dimethyl-9H-pyrido[2,3-b]indole-3-carboxylic acid, 2-propenyl ester] was tested, and the change in vivo at 50 mg/kg was 138%.

C#CCOC(=O)c1c(C)nc2c(c1N)c1ccccc1n2C [Example 14, 4-Amino-2,9-dimethyl-9H-pyrido[2,3-b]indole-3-carboxy-lie acid, 2-propynyl ester] showed a change in vivo at 50 mg/kg of 102%.

For CCCOC(=O)c1c(C)nc2c(c1N)c1ccccc1n2C [Example 24, 4-Amino-2,9-dimethyl-9H-pyrido[2,3,b]indole-3-carboxylic acid, n-propyl ester], the change in vivo at 50 mg/kg was 78%.
